Test results as given in patent US9416111B2, “Substituted diazine and triazine spleen tyrosine kinease (Syk) inhibitors” (Merck Sharp & Dohme Corp., priority 2012, dated 2016).
pIC50: −log10 of the molar value. Where “and” joins values, the source holds several entries; their conditions need not be identical. Identical values can stand only once. Like-named read-outs stand apart in the source and are kept apart here.

Target: T1, recombinant human GST-SYK (Homo sapiens, UniProt P43405)
T1 construct: purchased Carna Biosciences 08-176
Assay: Homogeneous Time-Resolved Fluorescence (HTRF) assay for the recombinant human Syk enzyme
Assay type: biochemical
Conditions: GST-hSYK 5 pM, ATP 25 μM
How it was run: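 HTRF read-out, via Europium anti-phosphotyrosine antibody and SA-APC added with EDTA, measured phosphorylation of a 250 nM biotinylated substrate after 45 min at room temperature with 25 μM ATP and 5 mM magnesium. Enzyme was 5 pM GST-hSYK, preincubated 10 min with compound in Tris pH 7.5 buffer containing DTT.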

[1] = IC50 rated in classes, read-out: rhSYK Activity

**Q.** With Cc1cc(Nc2nccc(C(F)(F)F)n2)cc(-c2cnc(N3CCCC(C)(O)C3)nc2)c1 (stereo not shown) [Example 2.27, 3-methyl-1-[5-(3-methyl-5-{[4-(trifluoromethyl)pyrimidin-2-yl]amino}phenyl)pyrimidin-2-yl]piperidin-3-ol] as the molecule, how does the pIC50 [1] read?
**A.** > 7.00

**Q.** How did the pIC50 [1] turn out when Cc1cc(Nc2nccc(C(F)(F)F)n2)cc(-c2cnc(NCc3cncn3C)nc2)c1 [Example 2.52, N-[3-methyl-5-(2-{[(1-methyl-1H-imidazol-5-yl)methyl]amino}pyrimidin-5-yl)phenyl]-4-(trifluoromethyl)pyrimidin-2-amine] was run?
**A.** > 7.00

**Q.** With Cc1cc(Nc2nccc(C(F)(F)F)n2)cc(-c2cnc(NC(C)c3ccccn3)nc2)c1 (stereo not shown) [Example 2.21, N-(3-methyl-5-{2-[(1-pyridin-2-ylethyl)amino]pyrimidin-5-yl}phenyl)-4-(trifluoromethyl)pyrimidin-2-amine] as the molecule, how does the pIC50 [1] read?
**A.** > 7.00

**Q.** With CCC[C@H](Nc1ncc(-c2cc(C)cc(Nc3nccc(C(F)(F)F)n3)c2)cn1)C(=O)O [Example 2.14, N-[5-(3-methyl-5-{[4-(trifluoromethyl)pyrimidin-2-yl]amino}phenyl)pyrimidin-2-yl]-L-norvaline] as the molecule, how does the pIC50 [1] read?
**A.** > 7.00

**Q.** Cc1cc(Nc2nccc(C3CC3)n2)cc(-c2cc(CCC(=O)O)ncn2)c1 [Example 3.54, 3-(6-{3-[(4-cyclopropylpyrimidin-2-yl)amino]-5-methylphenyl}pyrimidin-4-yl)propanoic acid] was tested. Which pIC50 [1] did it give?
**A.** 6.00 to 7.00

**Q.** Cc1cc(Nc2nccc(C(F)(F)F)n2)cc(-c2ccc(N3CCOCC3)nn2)c1 [Example 3.29, N-[3-methyl-5-(6-morpholin-4-ylpyridazin-3-yl)phenyl]-4-(trifluoromethyl)pyrimidin-2-amine] was tested. Which pIC50 [1] did it give?
**A.** 6.00 to 7.00

**Q.** Cc1cc(Nc2nccc(C(F)(F)F)n2)cc(-c2ccc(N3CCC(C(N)=O)CC3)nn2)c1 [Example 3.31, 1-[6-(3-methyl-5-{[4-(trifluoromethyl)pyrimidin-2-yl]amino}phenyl)pyridazin-3-yl]piperidine-4-carboxamide] was tested. Which pIC50 [1] did it give?
**A.** > 7.00

**Q.** How did the pIC50 [1] turn out when Cc1cc(Nc2nccc(C(F)(F)F)n2)cc(-c2cnc(NCCCO)nc2)c1 [Example 2.34, 3-{[5-(3-methyl-5-{[4-(trifluoromethyl)pyrimidin-2-yl]amino}phenyl)pyrimidin-2-yl]amino}propan-1-ol] was run?
**A.** > 7.00

**Q.** How did the pIC50 [1] turn out when COc1ccnc(Nc2cc(C)cc(-c3cnc(CCC(=O)O)cn3)c2)n1 [Example 3.6, 3-(5-{3-[(4-methoxypyrimidin-2-yl)amino]-5-methylphenyl}pyrazin-2-yl)propanoic acid] was run?
**A.** > 7.00

**Q.** With CCOC(=O)CCc1cncc(-c2cc(C)cc(Nc3nccc(C4CC4)n3)c2)n1 [Example 3.21, ethyl 3-(6-{3-[(4-cyclopropylpyrimidin-2-yl)amino]-5-methylphenyl}pyrazin-2-yl)propanoate] as the molecule, how does the pIC50 [1] read?
**A.** 6.00 to 7.00

**Q.** Cc1cc(Nc2nccc(C(F)F)n2)cc(-c2cnc([C@H](C)[C@H]3CC[C@H](C(=O)O)[C@H](C)C3)nc2)c1 (single isomer, unassigned) [Example 7.3] was tested. Which pIC50 [1] did it give?
**A.** > 7.00

**Q.** Cc1cc(Nc2nccc(C(F)(F)F)n2)cc(-c2cnc(NC(CO)C(=O)O)nc2)c1 (racemic) [Example 2.41, N-[5-(3-methyl-5-{[4-(trifluoromethyl)pyrimidin-2-yl]amino}phenyl)pyrimidin-2-yl]serine] was tested. Which pIC50 [1] did it give?
**A.** > 7.00

**Q.** How did the pIC50 [1] turn out when Cc1cc(Nc2nccc(C(F)(F)F)n2)cc(-c2cnc(NCC(C)(C)O)nc2)c1 [Example 2.47, 2-methyl-1-{[5-(3-methyl-5-{[4-(trifluoromethyl)pyrimidin-2-yl]amino}phenyl)pyrimidin-2-yl]amino}propan-2-ol] was run?
**A.** > 7.00

**Q.** Cc1cc(Nc2nccc(C(F)(F)F)n2)cc(-c2cnccn2)c1 [Example 3.2, N-(3-methyl-5-pyrazin-2-ylphenyl)-4-(trifluoromethyl)pyrimidin-2-amine] was tested. Which pIC50 [1] did it give?
**A.** 6.00 to 7.00 and > 7.00

**Q.** Cc1cc(Nc2nccc(C(F)(F)F)n2)cc(-c2cnc(N3CCC(O)C3)nc2)c1 (stereo not drawn) [Example 2.10, l-[5-(3-methyl-5-{[4-(trifluoromethyl)pyrimidin-2-yl]amino}phenyl)pyrimidin-2-yl]pyrrolidin-3-ol] was tested. Which pIC50 [1] did it give?
**A.** > 7.00

**Q.** With CCC1C(=O)NCCN1c1ncc(-c2cc(C)cc(Nc3nccc(C(F)(F)F)n3)c2)cn1 (stereo not shown) [Example 2.51, 3-ethyl-4-[5-(3-methyl-5-{[4-(trifluoromethyl)pyrimidin-2-yl]amino}phenyl)pyrimidin-2-yl]piperazin-2-one] as the molecule, how does the pIC50 [1] read?
**A.** > 7.00

**Q.** Cc1cc(Nc2nccc(C(F)F)n2)cc(-c2cnc([C@H](C)[C@H]3CC[C@H](C(=O)O)[C@H](C)C3)nc2)c1 (single isomer, unassigned) [Example 7.6] was tested. Which pIC50 [1] did it give?
**A.** > 7.00

**Q.** And the pIC50 (values in text, read-out: IC50)?
**A.** 9.15

**Q.** How did the pIC50 [1] turn out when CCOC(=O)CCc1cc(-c2cccc(Nc3nccc(C(F)(F)F)n3)c2)ncn1 [Example 3.44, ethyl 3-[6-(3-{[4-(trifluoromethyl)pyrimidin-2-yl]amino}phenyl)pyrimidin-4-yl]propanoate] was run?
**A.** 5.00 to 6.00

**Q.** With Cc1cc(Nc2nccc(C(F)(F)F)n2)cc(-c2cnc(N3CCN(CC(F)(F)F)CC3)nc2)c1 [Example 2.65, N-(3-methyl-5-{2-[4-(2,2,2-trifluoroethyl)piperazin-1-yl]pyrimidin-5-yl}phenyl)-4-(trifluoromethyl)pyrimidin-2-amine] as the molecule, how does the pIC50 [1] read?
**A.** 6.00 to 7.00

**Q.** Cc1cc(Nc2nccc(C(F)(F)F)n2)cc(-c2cnc(NCCC(N)=O)nc2)c1 [Example 2.39, N~3~-[5-(3-methyl-5-{[4-(trifluoromethyl)pyrimidin-2-yl]amino}phenyl)pyrimidin-2-yl]-beta-alaninamide] was tested. Which pIC50 [1] did it give?
**A.** > 7.00

**Q.** How did the pIC50 [1] turn out when O=C(O)CCc1cncc(-c2cccc(Nc3nccc(C(F)(F)F)n3)c2)n1 [Example 3.14, 3-[6-(3-{[4-(trifluoromethyl)pyrimidin-2-yl]amino}phenyl)pyrazin-2-yl]propanoic acid] was run?
**A.** 6.00 to 7.00

**Q.** How did the pIC50 [1] turn out when O=C(O)CCc1cc(-c2cccc(Nc3nccc(C(F)(F)F)n3)c2)ncn1 [Example 3.45, 3-[6-(3-{[4-(trifluoromethyl)pyrimidin-2-yl]amino}phenyl)pyrimidin-4-yl]propanoic acid] was run?
**A.** 6.00 to 7.00

**Q.** Cc1cc(Nc2nccc(C(F)(F)F)n2)cc(-c2ccc(N3CCC(O)CC3)nn2)c1 [Example 3.30, 1-[6-(3-methyl-5-{[4-(trifluoromethyl)pyrimidin-2-yl]amino}phenyl)pyridazin-3-yl]piperidin-4-ol] was tested. Which pIC50 [1] did it give?
**A.** 6.00 to 7.00

**Q.** How did the pIC50 [1] turn out when Cc1cc(Nc2nccc(C(F)(F)F)n2)cc(-c2ccc(C(C)(C)O)nn2)c1 [Example 3.36, 2-[6-(3-methyl-5-{[4-(trifluoromethyl)pyrimidin-2-yl]amino}phenyl)pyridazin-3-yl]propan-2-ol] was run?
**A.** 6.00 to 7.00

**Q.** How did the pIC50 [1] turn out when Cc1cc(Nc2nccc(C3CC3)n2)cc(-c2cnc(CCC(=O)O)cn2)c1 [Example 3.12, 3-(5-{3-[(4-cyclopropylpyrimidin-2-yl)amino]-5-methylphenyl}pyrazin-2-yl)propanoic acid] was run?
**A.** > 7.00

**Q.** How did the pIC50 [1] turn out when Cc1cc(Nc2nccc(C(F)(F)F)n2)cc(-c2ccc(-c3ccc(C(=O)O)cc3)nn2)c1 [Example 3.33, 4-[6-(3-methyl-5-{[4-(trifluoromethyl)pyrimidin-2-yl]amino}phenyl)pyridazin-3-yl]benzoic acid] was run?
**A.** > 7.00

**Q.** With CCOC(=O)CCc1cnc(-c2cc(C)cc(Nc3nccc(C)n3)c2)cn1 [Example 3.9, ethyl 3-(5-{3-methyl-5-[(4-methylpyrimidin-2-yl)amino]phenyl}pyrazin-2-yl)propanoate] as the molecule, how does the pIC50 [1] read?
**A.** 6.00 to 7.00

**Q.** Cc1cc(Nc2nccc(C(F)(F)F)n2)cc(-c2cnc(NC3(C(=O)O)CCCC3)nc2)c1 [Example 2.76, 1-{[5-(3-methyl-5-{[4-(trifluoromethyl)pyrimidin-2-yl]amino}phenyl)pyrimidin-2-yl]amino}cyclopentanecarboxylic acid] was tested. Which pIC50 [1] did it give?
**A.** > 7.00

**Q.** How did the pIC50 [1] turn out when Cc1cc(Nc2nccc(C(F)(F)F)n2)cc(-c2cnc(NCCc3c[nH]cn3)nc2)c1 [Example 2.33, N-[3-(2-{[2-(1H-imidazol-4-yl)ethyl]amino}pyrimidin-5-yl)-5-methylphenyl]-4-(trifluoromethyl)pyrimidin-2-amine] was run?
**A.** > 7.00

**Q.** Cc1cc(Nc2nccc(C(F)(F)F)n2)cc(-c2cnc(NCCS(C)(=O)=O)nc2)c1 [Example 2.48, N-[3-methyl-5-(2-{[2-(methylsulfonyl)ethyl]amino}pyrimidin-5-yl)phenyl]-4-(trifluoromethyl)pyrimidin-2-amine] was tested. Which pIC50 [1] did it give?
**A.** > 7.00

**Q.** How did the pIC50 [1] turn out when Cc1cc(Nc2nccc(C(F)F)n2)cc(-c2cnc([C@H](C)[C@H]3CC[C@H](C(=O)O)[C@H](C)C3)nc2)c1 (single isomer, unassigned) [Example 7.8] was run?
**A.** > 7.00

**Q.** Cc1cc(Nc2nccc(C(F)(F)F)n2)cc(-c2cnc(N3CCCC3C(N)=O)nc2)c1 (racemic) [Example 2.74, 1-[5-(3-methyl-5-{[4-(trifluoromethyl)pyrimidin-2-yl]amino}phenyl)pyrimidin-2-yl]prolinamide] was tested. Which pIC50 [1] did it give?
**A.** > 7.00

**Q.** Cc1cc(Nc2nccc(C(F)(F)F)n2)cc(-c2cnc(N(C)CC(=O)O)nc2)c1 [Example 2.32, N-methyl-N-[5-(3-methyl-5-{[4-(trifluoromethyl)pyrimidin-2-yl]amino}phenyl)pyrimidin-2-yl]glycine] was tested. Which pIC50 [1] did it give?
**A.** > 7.00

**Q.** With Cc1cc(Nc2nccc(C(F)(F)F)n2)cc(-c2ccc(N(C)CC(=O)O)nn2)c1 [Example 3.38, N-methyl-N-[6-(3-methyl-5-{[4-(trifluoromethyl)pyrimidin-2-yl]amino}phenyl)pyridazin-3-yl]glycine] as the molecule, how does the pIC50 [1] read?
**A.** > 7.00

**Q.** With Cc1cc(Nc2nccc(C(F)(F)F)n2)cc(-c2cnc(OC3CCC(C(=O)O)CC3)nc2)c1 (stereo not shown) [Example 3.60, 4-{[5-(3-methyl-5-{[4-(trifluoromethyl)pyrimidin-2-yl]amino}phenyl)pyrimidin-2-yl]oxy}cyclohexanecarboxylic acid] as the molecule, how does the pIC50 [1] read?
**A.** > 7.00

**Q.** Cc1cc(Nc2nccc(C(F)(F)F)n2)cc(-c2cnc(N3CC(O)C3)nc2)c1 [Example 2.50, 1-[5-(3-methyl-5-{[4-(trifluoromethyl)pyrimidin-2-yl]amino}phenyl)pyrimidin-2-yl]azetidin-3-ol] was tested. Which pIC50 [1] did it give?
**A.** > 7.00
